For eight molecules, IC50 results are on record in patent US7138408B2, “HIV integrase inhibitors, pharmaceutical compositions and methods for their use” (priority 2003, dated 2006).

By IC50 is commonly meant the concentration that inhibits the measured activity by half. Higher therefore signals weaker potency.

The target in this experiment is T1, HIV-1 integrase (SF1) (Human immunodeficiency virus type 1 group M subtype B, UniProt P04585, C1203S/C1427S/F1286D/F1332K/W1278D).
T1 construct: 6-histidine tag with thrombin cleavage site (N, cleaved yes); made in house; host or cells: E. coli BL21 (DE3)
The experiment can be described thus: Integrase strand-transfer scintillation proximity assay. In kind it is biochemical. An excerpt:
Oligonucleotides: Oligonucleotide #1-5′-(biotin)[…]-3′ (SEQ ID NO: 1) and oligonucleotide #2-5′-[…]-3′ (SEQ ID NO: 2), were synthesized by TriLink BioTechnologies, Inc. (San Diego, Calif.). The annealed product represents preprocessed viral ds-DNA derived from the LTR U5 sequence of the viral genome. A ds-DNA control to test for non-specific interactions was made using a 3′ di-deoxy derivative of oligonucleotide #1 annealed to oligonucleotide #2. The CA overhang at the 5′ end of the non-biotinylated strand of the ds-DNA was created artificially by using a complimentary DNA oligonucleotide shortened by 2 base pairs. This configuration eliminates the requisite 3′ processing step of the integrase enzyme prior to the strand-transfer mechanism.
Host ds-DNA was prepared as an unlabeled and [^3H]-thymidine labeled product from annealed oligonucleotide #3-5-[…]-3′ (SEQ ID NO: 3), and oligonucleotide #4-5′-[…]-3′ (SEQ ID NO: 4), both synthesized by TriLink BioTechnologies, Inc. (San Diego, Calif.). The annealed product had overhanging 3′ ends of poly(dA). Host DNA was custom radiolabeled by PerkinElmer Life Sciences Inc. (Boston, Mass.) using an enzymatic method with a 12/1 ratio of [methyl-^3H]dTTP/cold ds-DNA to yield 5′-blunt end ds-DNA with a specific activity of>900 Ci/mmol. The radiolabeled product was purified using a NENSORB cartridge and stored in stabilized aqueous solution (PerkinElmer). The final radiolabeled product had six [^3H]-thymidine nucleotides at both 5′ ends of the host ds-DNA.
Reagents: Streptavidin-coated polyvinyltoluene (PVT) SPA beads were purchased from Amersham Pharmacia (Piscataway, N.J.). Cesium chloride was purchased from Shelton Scientific, Inc. (Shelton, Conn.). White polystyrene, flat bottom, non-binding surface 384-well plates were purchased from Corning. All other buffer components were purchased from Sigma (St. Louis, Mo.) unless otherwise indicated.
Enzyme Construction: Full-length HIV-1 integrase (SF1) sequence (amino acids 1–288) (SEQ ID NO: 5) was constructed in a pET 15b vector (Novagen, Madison, Wis.) with mutations outlined by Chen et al. (Chen, C-H. J. et al., PNAS 97: 8233–8238 (2000)) that facilitate solubility of the enzyme and decrease oxidation. The vector contained a T7 promoter, a 6-histidine tag at the amino terminus, and a thrombin cleavage site. Mutations C56S, W131D, F139D, F185K, and C280S were introduced using a QuickChange kit (Stratagene, San Diego, Calif.). The construct was confirmed through DNA sequencing.
Enzyme Purification: The penta-mutant was expressed in E. coli BL21 (DE3) cells and induced with 1 mM isopropyl-1 thio-β-D-galactopyranoside (IPTG) when cells reached an optical density between 0.8–1.0 at 600 nm. Cells were lysed in 20 mM HEPES (pH 7.5), 1.5 M NaCl, 5 mM imidazole, and 2 mM 2-mercaptoethanol. The enzyme was purified following standard methods for histidine tagged proteins (Jenkins, T. M. et al., Journal of Biological Chemistry 271: 7712–7718 (1996)). Specifically, cell lysate was passed over a Ni-Nta column (Qiagen, Chatsworth, Calif.) with the 6-His tagged integrase protein eluted by adding 250 mM imidazole. A G-25 Sepharose® column (Amersham Pharmacia, Piscataway, N.J.) was used to exchange the buffer prior to thrombin cleavage of the integrase protein and subsequent removal of thrombin using a benzamidine-Sepharose® 6B column. The cleaved 6-His tag was separated from the integrase using a second Ni-Nta column. The integrase was further purified with a heparin-Sepharose® column and a gradient of NaCl (0.4 to 1 M) in 20 mM HEPES (pH 7.5), 400 mM NaCl, and 1 mM DTT buffer. The purified protein was dialyzed against 20 mM HEPES (pH 7.5), 800 mM NaCl, and 1 mM DTT and concentrated by stirred cell ultrafiltration (Millipore, Bedford, Mass.) or Ultra-free spin concentrators (Millipore, Bedford, Mass.) when required. […]
(In general: Scintillation proximity formats need no separation of bound from free tracer.)
The molecule `CN(O)C(=O)c1cc2c3ccccc3n(Cc3ccc(F)cc3)c2cn1` [Compound 13, 9-(4-Fluorobenzyl)-N-hydroxy-N-methyl-9H-β-carboline-3-carboxamide] displayed an IC50 of 699 nM.

As for `O=C(NO)c1cc2c3ccccc3n(Cc3ccc(Cl)s3)c2cn1` [Compound 2, 9-[(5-Chlorothien-2-yl)methyl]-N-hydroxy-9H-β-carboline-3-carboxamide], the IC50 was found to be 494 nM.

In the case of `O=C(NO)c1cc2c3ccccc3n(Cc3ccccc3)c2cn1` [Compound 4, 9-Benzyl-N-hydroxy-9H-β-carboline-3-carboxamide], the IC50 was 281 nM.

As to `O=C(NO)c1cc2c3ccccc3n(Cc3cccc(Cl)c3F)c2cn1` [Compound 3, 9-(3-Chloro-2-fluorobenzyl)-N-hydroxy-9H-β-carboline-3-carboxamide], 400 nM corresponded to half-maximal inhibition (IC50).

On to `O=C(NO)c1cc2c3ccccc3n(Cc3ccc(F)cc3F)c2cn1` [Compound 6, 9-(2,4-Difluorobenzyl)-N-hydroxy-9H-β-carboline-3-carboxamide], for which inhibition was half-maximal at 463 nM (IC50). This IC50 and that of the molecule before are within 1.5-fold of each other.

`O=C(NO)c1cc2c3ccccc3n(Cc3c(F)ccc(Cl)c3F)c2cn1` [Compound 7, 9-(3-Chloro-2,6-difluorobenzyl)-N-hydroxy-9H-β-carboline-3-carboxamide]: it took 1390 nM to reach half-maximal inhibition (IC50).

Molecule `O=C(NO)c1cc2c3ccccc3n(Cc3ccc(F)cc3)c2cn1` [Compound 1, 9-(4-Fluorobenzyl)-N-hydroxy-9H-β-carboline-3-carboxamide] registered a half-inhibitory concentration (IC50) of 234 nM.

`Nc1ccc2c(c1)c1cc(C(=O)NO)ncc1n2Cc1cccc(Cl)c1` [Compound 8, 6-Amino-9-(3-chlorobenzyl)-N-hydroxy-9H-β-carboline-3-carboxamide] yielded an IC50 of 713 nM.
